According to ChEMBL document CHEMBL1201862, “PubChem BioAssay data set” (2004):
Activity calls are given as the source filed them.

How the values were obtained:
[1] = system: Streptococcus sp. 'group A'; assay: growth inhibition of control SK(-) GAS strain, dose response, counter-screen for streptokinase expression inhibitor project, luminescence, kanamycin, BacTiterGlo, confirmation (AID 1900); type: functional, organism-based
[2] = molecular target: Glucose-6-phosphate 1-dehydrogenase (Homo sapiens, UniProt P11413); assay: human G6PD enzyme inhibitors, dose response, selectivity assay for P. falciparum G6PD inhibitor project, biochemical, fluorescence (AID 504792); type: functional
Sequence of Glucose-6-phosphate 1-dehydrogenase (P11413 whole entry): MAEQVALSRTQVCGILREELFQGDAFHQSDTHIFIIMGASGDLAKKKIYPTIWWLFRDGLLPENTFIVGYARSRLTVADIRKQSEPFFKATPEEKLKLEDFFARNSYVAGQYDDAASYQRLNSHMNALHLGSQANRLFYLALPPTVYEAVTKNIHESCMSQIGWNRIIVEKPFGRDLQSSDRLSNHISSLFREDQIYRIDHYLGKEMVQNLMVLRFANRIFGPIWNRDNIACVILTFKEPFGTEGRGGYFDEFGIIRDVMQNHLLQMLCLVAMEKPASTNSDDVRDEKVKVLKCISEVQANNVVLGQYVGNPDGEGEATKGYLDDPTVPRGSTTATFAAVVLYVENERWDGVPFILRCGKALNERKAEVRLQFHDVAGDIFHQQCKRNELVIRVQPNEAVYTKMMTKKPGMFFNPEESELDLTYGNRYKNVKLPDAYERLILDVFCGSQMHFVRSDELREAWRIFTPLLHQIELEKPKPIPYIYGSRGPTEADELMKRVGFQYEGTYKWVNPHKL

[3] = inhibitors of firefly luciferase expression or activity, dose response, H4 neuroglioma cells, luminescence (AID 1990); type: functional, cell-based
[4] = molecular target: Heat shock protein HSP 90-alpha (Homo sapiens, UniProt P07900); type: functional, organism-based
BJ [5] = assay: cells; type: functional, cell-based; conditions: Homo sapiens
BJ [6] = assay: cytotoxicity toward BJ-TERT fibroblasts, dose response, cell-based, RAS-independent, luminescence (AID 1933); type: functional; conditions: Homo sapiens
[7] = cytotoxicity toward DRD oncogenic fibroblasts, dose response, cell-based, non-viral oncogenic, luminescence (AID 1934); type: functional; conditions: Homo sapiens
BJ [8] = assay: cytotoxicity toward BJ-TERT-LT-ST fibroblasts, dose response, cell-based, RAS-independent, luminescence (AID 1935); type: functional; conditions: Homo sapiens;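 also: BJ fibroblasts immortalized with TERT plus LT and ST oncogenes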
[9] = cytotoxicity in HEK-293T cells, dose response, cytotoxicity control for TCR NF-kB inhibitor project, luminescence, T-cell screen hits (AID 489026); type: functional, cell-based;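 also: cells exposed to compound about 14 hours before the viability readout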
Large T antigen = Large T antigen (Simian virus 40, UniProt P03070); type: functional, Betapolyomavirus macacae;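 also: Confirmatory-stage PubChem screen for compounds that inhibit SV40 T antigen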
Sequence of Large T antigen (P03070 whole entry): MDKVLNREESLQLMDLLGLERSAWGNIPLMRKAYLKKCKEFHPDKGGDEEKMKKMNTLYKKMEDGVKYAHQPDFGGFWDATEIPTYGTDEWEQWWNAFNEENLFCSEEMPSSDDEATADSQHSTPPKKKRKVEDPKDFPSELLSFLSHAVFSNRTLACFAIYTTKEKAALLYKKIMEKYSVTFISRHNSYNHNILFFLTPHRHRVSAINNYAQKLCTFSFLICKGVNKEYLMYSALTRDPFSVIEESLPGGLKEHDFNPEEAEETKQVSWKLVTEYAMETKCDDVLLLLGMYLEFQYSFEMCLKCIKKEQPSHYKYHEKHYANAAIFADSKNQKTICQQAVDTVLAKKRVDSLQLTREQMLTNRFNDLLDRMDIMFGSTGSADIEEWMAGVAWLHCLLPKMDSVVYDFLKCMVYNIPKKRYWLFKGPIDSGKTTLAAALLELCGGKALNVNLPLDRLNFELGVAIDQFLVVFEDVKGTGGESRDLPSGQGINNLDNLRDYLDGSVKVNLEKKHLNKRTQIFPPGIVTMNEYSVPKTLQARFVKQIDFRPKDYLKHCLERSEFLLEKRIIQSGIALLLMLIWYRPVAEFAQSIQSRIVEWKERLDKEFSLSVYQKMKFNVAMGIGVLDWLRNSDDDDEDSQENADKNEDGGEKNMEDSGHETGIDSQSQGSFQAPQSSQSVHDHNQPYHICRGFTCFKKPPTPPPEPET

Streptokinase A = molecular target: T1, Streptokinase A (Streptococcus pyogenes serotype M1, UniProt P10520); assay: S. pyogenes streptokinase expression inhibitors, potency, dose response, plasminogen activation absorbance, OD405 (AID 1914); type: functional, Streptococcus pyogenes M1 GAS;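 also: secreted streptokinase activity via plasminogen activation per viability signal from cell pellet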
T1 sequence (P10520 whole entry): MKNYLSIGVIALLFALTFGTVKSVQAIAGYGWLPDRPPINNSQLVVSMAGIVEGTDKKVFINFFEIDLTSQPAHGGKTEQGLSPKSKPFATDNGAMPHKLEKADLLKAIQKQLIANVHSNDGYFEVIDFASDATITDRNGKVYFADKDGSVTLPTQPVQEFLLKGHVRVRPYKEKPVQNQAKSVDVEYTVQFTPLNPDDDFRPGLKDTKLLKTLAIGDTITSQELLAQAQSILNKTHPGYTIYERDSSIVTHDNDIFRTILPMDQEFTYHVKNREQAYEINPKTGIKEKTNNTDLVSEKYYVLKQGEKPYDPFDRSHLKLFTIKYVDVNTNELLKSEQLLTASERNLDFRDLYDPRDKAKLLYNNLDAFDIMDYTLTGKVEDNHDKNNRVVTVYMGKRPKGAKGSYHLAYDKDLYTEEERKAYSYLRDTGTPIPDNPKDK

[10] = Luminescence Cell-Based Dose Response HTS to Identify Inhibitors of 5'UTR Stem-Loop Driven Prion Protein mRNA Translation in H4 Neuroglioblastoma Cells. [Related pubchem assays: 1827 (Project Summary), 1813 (Primary HTS)]; type: functional
INS1 = assay: beta cell apoptosis inhibitors, cytokine rescue, dose response, luminescence, retest (AID 449756); type: functional, cell-based; conditions: Rattus norvegicus;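 also: cell death triggered by IL-1 beta plus TNF-alpha plus IFN-gamma mixture; protective hits raise ATP signal compared with cytokine alone wells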
[11] = inhibitors of SNCA 5'UTR-driven reporter translation, confirmation, H4 neuroglioma cells, luminescence (AID 1988); type: functional, cell-based
Streptococcus = assay: Group A Streptococcus viability loss, dose response, counter-screen for streptokinase expression inhibitor project, luminescence, BacTiterGlo (AID 1915); type: functional, organism-based;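 also: potency for reduction of bacterial viability or growth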
[12] = inhibitors of Trypanosoma cruzi host-cell infection, confirmation, beta-gal luminescence, NIH3T3 host cells (AID 2630); type: functional, cell-based; conditions: Mus musculus
cells = type: functional
[13] = inhibitors of intracellular T. cruzi replication, confirmation, NIH3T3 host cells, beta-gal luminescence (AID 2044); type: functional, cell-based;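 also: intracellular parasites grown in NIH/3T3 mouse fibroblasts as host cells; luminescent beta-galactosidase reporter signal from transgenic T. cruzi replicating inside host cells; inhibitors lower the luminescence signal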
[14] = cytotoxicity toward NIH3T3 fibroblasts, dose response, counter-screen, cell-based, ATP luminescence, mouse fibroblasts (AID 2010); type: functional;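 also: cells exposed to compound for about 90 hours before reading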
[15] = Luminescence Cell-Based Secondary HTS screen to identify cytotoxic compounds of NIH3T3 cells. [Related pubchem assays: 1885, 1968 ]; type: functional
[16] = Luminescence Cell-Based/Microorganism Confirmation at Dose of Inhibitors of Trypanosoma cruzi Infection. [Related pubchem assays: 1885, 1968 ]; type: functional
[17] = molecular target: Alkaline phosphatase, placental type (Homo sapiens, UniProt P05187); assay: PLAP enzyme inhibitors, confirmation, biochemical, luminescence (AID 1512); type: functional
Sequence of Alkaline phosphatase, placental type (P05187 whole entry): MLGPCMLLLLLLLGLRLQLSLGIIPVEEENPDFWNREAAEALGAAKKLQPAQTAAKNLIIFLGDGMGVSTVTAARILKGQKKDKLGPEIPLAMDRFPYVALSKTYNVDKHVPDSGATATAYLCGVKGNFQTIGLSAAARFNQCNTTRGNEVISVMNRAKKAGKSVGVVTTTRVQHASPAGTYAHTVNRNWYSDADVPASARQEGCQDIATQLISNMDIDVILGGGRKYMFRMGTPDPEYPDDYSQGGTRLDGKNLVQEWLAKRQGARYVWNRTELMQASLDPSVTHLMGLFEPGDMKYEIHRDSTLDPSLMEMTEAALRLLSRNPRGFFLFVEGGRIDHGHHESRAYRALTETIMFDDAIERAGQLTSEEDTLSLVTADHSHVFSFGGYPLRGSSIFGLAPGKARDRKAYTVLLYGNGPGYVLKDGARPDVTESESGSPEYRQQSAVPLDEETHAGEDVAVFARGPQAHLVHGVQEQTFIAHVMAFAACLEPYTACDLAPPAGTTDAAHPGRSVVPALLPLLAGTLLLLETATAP

[18] = molecular target: T2, Short transient receptor potential channel 4 (Mus musculus, UniProt Q9QUQ5); assay: mouse TRPC4 channel inhibitors, dose response, cell-based, HEK293 TRPC4/mu-opioid, Fluo-4 calcium (AID 434942); type: functional;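 also: potency of inhibitors blocking the TRPC4 calcium response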
T2 sequence (Q9QUQ5 whole entry): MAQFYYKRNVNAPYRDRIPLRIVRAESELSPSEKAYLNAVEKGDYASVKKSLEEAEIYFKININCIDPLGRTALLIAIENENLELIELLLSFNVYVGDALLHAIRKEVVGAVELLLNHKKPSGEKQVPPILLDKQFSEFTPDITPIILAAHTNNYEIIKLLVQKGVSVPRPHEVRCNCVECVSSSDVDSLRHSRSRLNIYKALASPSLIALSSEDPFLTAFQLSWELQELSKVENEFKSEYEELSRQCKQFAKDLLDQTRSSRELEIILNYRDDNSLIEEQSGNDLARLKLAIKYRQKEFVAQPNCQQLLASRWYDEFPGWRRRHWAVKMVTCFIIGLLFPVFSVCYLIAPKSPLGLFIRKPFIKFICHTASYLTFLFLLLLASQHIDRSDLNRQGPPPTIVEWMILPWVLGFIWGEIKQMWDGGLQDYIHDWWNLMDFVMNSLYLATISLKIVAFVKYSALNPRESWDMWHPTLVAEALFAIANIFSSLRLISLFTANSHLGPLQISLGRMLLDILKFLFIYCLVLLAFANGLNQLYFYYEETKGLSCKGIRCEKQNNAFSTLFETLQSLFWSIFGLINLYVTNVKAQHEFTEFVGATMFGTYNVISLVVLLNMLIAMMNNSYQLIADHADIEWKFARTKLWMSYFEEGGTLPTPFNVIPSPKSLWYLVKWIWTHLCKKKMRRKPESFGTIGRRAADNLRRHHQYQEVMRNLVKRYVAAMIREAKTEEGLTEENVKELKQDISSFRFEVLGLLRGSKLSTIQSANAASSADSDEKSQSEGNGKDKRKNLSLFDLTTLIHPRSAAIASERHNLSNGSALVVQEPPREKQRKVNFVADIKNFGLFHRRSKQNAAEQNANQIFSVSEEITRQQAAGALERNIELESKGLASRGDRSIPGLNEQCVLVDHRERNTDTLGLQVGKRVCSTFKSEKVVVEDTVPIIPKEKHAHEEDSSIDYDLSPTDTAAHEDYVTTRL

[19] = molecular target: T3, Voltage-gated N-type calcium channel alpha-1B subunit/Amyloid beta A4 precursor protein-binding family A member 1 (Homo sapiens, UniProt Q00975+Q02410); type: protein assay
T3 sequence (Q00975 whole entry): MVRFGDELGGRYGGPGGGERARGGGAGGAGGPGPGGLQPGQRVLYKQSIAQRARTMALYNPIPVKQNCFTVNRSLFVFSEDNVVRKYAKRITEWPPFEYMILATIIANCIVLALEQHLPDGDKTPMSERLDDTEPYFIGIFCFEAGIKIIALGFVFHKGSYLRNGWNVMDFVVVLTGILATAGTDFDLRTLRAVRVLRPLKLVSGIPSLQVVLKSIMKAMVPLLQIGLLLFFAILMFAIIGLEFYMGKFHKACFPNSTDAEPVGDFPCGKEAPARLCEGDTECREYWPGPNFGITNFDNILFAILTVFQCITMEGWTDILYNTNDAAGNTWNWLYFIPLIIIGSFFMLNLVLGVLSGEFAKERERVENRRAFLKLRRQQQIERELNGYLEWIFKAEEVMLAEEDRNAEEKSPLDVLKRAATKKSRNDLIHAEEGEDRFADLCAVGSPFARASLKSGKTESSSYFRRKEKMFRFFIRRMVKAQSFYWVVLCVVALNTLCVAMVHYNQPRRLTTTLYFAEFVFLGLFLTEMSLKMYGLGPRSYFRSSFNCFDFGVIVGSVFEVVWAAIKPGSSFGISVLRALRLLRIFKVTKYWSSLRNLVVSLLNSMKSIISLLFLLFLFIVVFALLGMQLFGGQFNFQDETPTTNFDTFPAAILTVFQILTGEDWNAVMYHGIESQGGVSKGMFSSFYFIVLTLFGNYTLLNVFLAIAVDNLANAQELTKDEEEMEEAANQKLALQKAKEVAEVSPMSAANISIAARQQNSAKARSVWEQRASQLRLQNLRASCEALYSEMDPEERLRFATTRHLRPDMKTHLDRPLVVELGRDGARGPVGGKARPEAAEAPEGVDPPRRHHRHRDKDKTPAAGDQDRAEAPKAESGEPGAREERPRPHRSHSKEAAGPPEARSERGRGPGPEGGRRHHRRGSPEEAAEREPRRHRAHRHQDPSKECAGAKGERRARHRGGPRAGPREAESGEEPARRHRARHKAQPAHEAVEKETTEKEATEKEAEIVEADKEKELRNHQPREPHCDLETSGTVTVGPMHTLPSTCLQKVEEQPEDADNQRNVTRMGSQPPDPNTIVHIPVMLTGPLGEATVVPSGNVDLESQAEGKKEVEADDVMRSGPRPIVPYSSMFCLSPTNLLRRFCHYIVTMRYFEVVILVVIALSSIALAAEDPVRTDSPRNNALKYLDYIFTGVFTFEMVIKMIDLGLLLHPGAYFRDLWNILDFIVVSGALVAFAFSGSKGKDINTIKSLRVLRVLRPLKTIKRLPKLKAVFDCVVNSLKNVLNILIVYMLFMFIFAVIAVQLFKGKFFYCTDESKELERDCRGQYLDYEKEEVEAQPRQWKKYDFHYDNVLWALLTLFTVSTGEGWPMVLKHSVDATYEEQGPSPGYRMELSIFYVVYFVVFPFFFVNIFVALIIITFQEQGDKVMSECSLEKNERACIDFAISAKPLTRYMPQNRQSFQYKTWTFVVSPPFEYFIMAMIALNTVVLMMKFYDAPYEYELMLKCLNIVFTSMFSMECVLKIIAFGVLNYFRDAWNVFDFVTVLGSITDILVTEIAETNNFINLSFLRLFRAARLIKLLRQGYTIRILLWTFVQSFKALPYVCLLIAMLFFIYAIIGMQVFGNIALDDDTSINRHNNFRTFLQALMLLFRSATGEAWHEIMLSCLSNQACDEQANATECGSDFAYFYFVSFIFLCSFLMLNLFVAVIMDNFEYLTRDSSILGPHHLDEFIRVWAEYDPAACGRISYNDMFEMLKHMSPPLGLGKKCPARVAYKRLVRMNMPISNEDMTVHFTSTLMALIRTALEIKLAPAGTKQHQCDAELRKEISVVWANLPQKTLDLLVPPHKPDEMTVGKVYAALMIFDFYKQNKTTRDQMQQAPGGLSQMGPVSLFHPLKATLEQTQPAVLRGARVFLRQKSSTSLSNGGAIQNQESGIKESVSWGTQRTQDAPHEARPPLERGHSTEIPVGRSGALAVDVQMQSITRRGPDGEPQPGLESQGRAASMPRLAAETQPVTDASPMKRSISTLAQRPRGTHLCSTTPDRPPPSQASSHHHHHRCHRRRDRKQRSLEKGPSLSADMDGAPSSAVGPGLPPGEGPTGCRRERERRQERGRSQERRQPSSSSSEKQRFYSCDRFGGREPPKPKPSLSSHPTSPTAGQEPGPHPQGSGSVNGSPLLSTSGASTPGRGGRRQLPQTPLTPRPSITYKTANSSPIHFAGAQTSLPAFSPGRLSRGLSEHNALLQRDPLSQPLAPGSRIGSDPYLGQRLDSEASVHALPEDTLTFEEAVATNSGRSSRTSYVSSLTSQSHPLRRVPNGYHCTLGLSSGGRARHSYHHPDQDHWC
T3 sequence (Q02410 whole entry): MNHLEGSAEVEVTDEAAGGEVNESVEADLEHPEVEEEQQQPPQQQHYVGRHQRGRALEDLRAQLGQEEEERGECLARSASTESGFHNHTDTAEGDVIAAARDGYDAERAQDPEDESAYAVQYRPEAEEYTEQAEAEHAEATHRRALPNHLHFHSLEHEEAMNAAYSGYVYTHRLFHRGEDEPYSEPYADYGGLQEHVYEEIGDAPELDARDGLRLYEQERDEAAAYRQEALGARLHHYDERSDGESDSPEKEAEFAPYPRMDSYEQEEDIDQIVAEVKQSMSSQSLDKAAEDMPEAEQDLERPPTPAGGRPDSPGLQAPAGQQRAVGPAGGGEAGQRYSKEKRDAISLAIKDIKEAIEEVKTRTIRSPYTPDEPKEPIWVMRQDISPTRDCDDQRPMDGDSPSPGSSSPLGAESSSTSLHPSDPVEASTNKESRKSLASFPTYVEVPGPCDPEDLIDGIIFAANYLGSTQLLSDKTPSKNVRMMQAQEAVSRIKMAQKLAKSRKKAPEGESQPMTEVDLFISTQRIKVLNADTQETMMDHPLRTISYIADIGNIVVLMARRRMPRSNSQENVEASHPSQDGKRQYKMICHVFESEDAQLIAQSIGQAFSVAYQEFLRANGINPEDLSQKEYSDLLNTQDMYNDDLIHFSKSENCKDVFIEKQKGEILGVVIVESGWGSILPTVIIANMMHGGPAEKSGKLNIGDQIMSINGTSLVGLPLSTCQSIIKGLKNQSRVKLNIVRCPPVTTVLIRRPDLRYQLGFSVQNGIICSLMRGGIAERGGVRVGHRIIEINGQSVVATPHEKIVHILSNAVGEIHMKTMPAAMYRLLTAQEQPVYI

[20] = molecular target: T3, Voltage-gated N-type calcium channel alpha-1B subunit/Amyloid beta A4 precursor protein-binding family A member 1; type: protein assay; remark: listed apart in the source

Structure (SMILES): COc1cc(/C=C/C(=O)c2ccc([N+](=O)[O-])o2)ccc1O
- EC50 [1]: 3.09 µM (active)
- IC50 [2]: 60.4 µM (inactive)
- EC50 [3]: > 30 µM (not active)
- AC50 [4]: 4.28 µM (active)
- EC50 (BJ [5]): > 150 µM (inconclusive)
- EC50 (BJ [6]): > 150 µM (not active)
- EC50 [7]: 2.04 µM (inconclusive)
- EC50 (BJ [8]): 1.09 µM (inconclusive)
- IC50 [9]: 28.5 µM (inactive)
- IC50 (Large T antigen): 8.65 µM (active)
- EC50 (Streptokinase A): 12.8 µM (active)
- EC50 [10]: 7.59 µM (active)
- AC50 (INS1): 2.68 µM (active)
- EC50 [11]: 8.16 µM (active)
- EC50 (Streptococcus): 11.8 µM (active)

Structure (SMILES): CC(C)(C)OC(=O)N/N=C\c1ccc([N+](=O)[O-])s1
- EC50 [12]: 2.46 µM (active)
- IC50 (cells): 27.3 µM (active)
- EC50 [13]: 2.7 µM (active)
- EC50 [14]: > 60 µM (not active)
- EC50 [15]: > 195 µM (not active)
- EC50 [16]: 2.46 µM (active)

Structure (SMILES): CCn1ncc(/C=N/NC(=O)c2ccc3c(c2)c(C)c(C)n3Cc2ccccc2)c1C
- IC50 [17]: > 100 µM (inactive)

Structure (SMILES): CCO[C@H]1OC(C(=O)NCc2nc3ccccc3[nH]2)=C[C@@H](C2CC2)[C@@H]1CCCO
- IC50 [9]: > 80 µM (inactive)

Structure (SMILES): Cc1ccn2c(-c3csc(NCc4ccco4)n3)c(C)nc2c1
- EC50 [18]: 1.5 µM (active)
- IC50 [19]: 8.87 µM (active)
- IC50 [20]: > 50 µM (inactive)
